Results reported in patent publication US5840684A, “Glycopeptide antibiotic derivatives” (Eli Lilly and Company, priority 1995, dated 1998).
Values after ≈ are worked out from the molar mass of the structure shown.

Tests used:
[1] = tested on: vancomycin-resistant enterococci; assay: broth micro-dilution, mean geometric MIC; format: cell-based, Enterococcus faecium and Enterococcus faecalis; details: enterococci, 24-hour incubation
[2] = tested on: vancomycin-susceptible enterococci; assay: broth micro-dilution, mean geometric MIC; format: cell-based, Enterococcus faecium and Enterococcus faecalis; details: enterococci, 24-hour incubation
[3] = tested on: Staphylococcus aureus S13E; format: cell-based
Protocol: (§1) The MIC's were determined using a standard broth micro-dilution assay.

[4] = tested on: Staphylococcus aureus SA1199B; format: cell-based
Protocol: as §1

[5] = tested on: Enterococcus gallinarum 245; assay: broth micro-dilution MIC; format: cell-based; details: Enterococcus gallinarum 245
Protocol: (§2) The formula I compounds have in vitro and in vivo activity against Gram-positive pathogenic bacteria. The MIC's were determined using a standard broth micro-dilution assay.

[6] = tested on: Streptococcus pneumoniae P1; assay: broth micro-dilution MIC; format: cell-based
Protocol: as §2

Entercoccus faecium 180 = assay: broth micro-dilution MIC; format: cell-based; details: Entercoccus faecium 180
Protocol: as §2

Entercoccus faecium 276 = assay: broth micro-dilution MIC; format: cell-based
Protocol: as §1

[7] = tested on: Entercoccus faecium 180-1; assay: broth micro-dilution MIC; format: cell-based
Protocol: as §1

[8] = tested on: Staphylococcus aureus SA1199A; assay: broth micro-dilution MIC; format: cell-based
Protocol: as §1

[9] = tested on: Streptococcus pyogenes C203; assay: broth micro-dilution MIC; format: cell-based
Protocol: as §1

[10] = tested on: Staphylococcus aureus SA1199; assay: broth micro-dilution MIC; format: cell-based
Protocol: as §1

[11] = tested on: Staphylococcus epidermidis 270; assay: broth micro-dilution MIC; format: cell-based
Protocol: as §2

[12] = tested on: Staphylococcus haemolyticus 415; assay: broth micro-dilution MIC; format: cell-based
Protocol: as §2

Entercoccus faecium 2041 = assay: broth micro-dilution MIC; format: cell-based; details: Entercoccus faecium 2041
Protocol: as §2

[13] = tested on: Staphylococcus haemolyticus 105; assay: broth micro-dilution MIC; format: cell-based
Protocol: as §2

[14] = tested on: Staphylococcus aureus X778; assay: broth micro-dilution MIC; format: cell-based
Protocol: as §1

[15] = tested on: Staphylococcus aureus X400; assay: broth micro-dilution MIC; format: cell-based
Protocol: as §1

[16] = tested on: Staphylococcus aureus 446; assay: broth micro-dilution MIC; format: cell-based
Protocol: as §1

[17] = tested on: Staphylococcus aureus 447; assay: broth micro-dilution MIC; format: cell-based
Protocol: as §1

SMILES	mean geometric MIC, Vancomycin Resistant Strains [1]	mean geometric MIC, Vancomycin Sensitive Strains [2]	MIC [3]	MIC [5]	MIC [6]	MIC (Entercoccus faecium 180)	MIC (Entercoccus faecium 276)	MIC [7]	MIC [9]	MIC [16]	also measured
CCCCCCCCCCCCOc1ccc(CNC2(C)CC(OC3C(Oc4c5cc6cc4Oc4ccc(cc4Cl)C(OC4CC(C)(N)C(O)C(C)O4)C4NC(=O)C(NC(=O)C6NC(=O)C(CC(N)=O)NC(=O)C(NC(=O)C(CC(C)C)NC)C(O)c6ccc(c(Cl)c6)O5)c5ccc(O)c(c5)-c5c(O)cc(O)cc5C(C(=O)O)NC4=O)OC(CO)C(O)C3O)OC(C)C2O)cc1 (stereo not drawn) [Compound 10]		3.5 mg/L	8 mg/L (≈ 4.29 µM)	8 mg/L (≈ 4.29 µM)	0.125 mg/L (≈ 0.067 µM)	8 mg/L (≈ 4.29 µM)	18 mg/L (≈ 9.64 µM)	4 mg/L (≈ 2.14 µM)	≤ 0.06 mg/L		MIC [4]: 8 mg/L (≈ 4.29 µM); MIC [8]: 4 mg/L (≈ 2.14 µM); MIC [10]: 8 mg/L (≈ 4.29 µM)
CCOC(c1ccccc1)c1ccc(CNC2(C)CC(OC3C(Oc4c5cc6cc4Oc4ccc(cc4Cl)C(OC4CC(C)(N)C(O)C(C)O4)C4NC(=O)C(NC(=O)C6NC(=O)C(CC(N)=O)NC(=O)C(NC(=O)C(CC(C)C)NC)C(O)c6ccc(c(Cl)c6)O5)c5ccc(O)c(c5)-c5c(O)cc(O)cc5C(C(=O)O)NC4=O)OC(CO)C(O)C3O)OC(C)C2O)cc1 (stereo not drawn) [Compound 126]	2.4 mg/L	0.11 mg/L	0.5 mg/L (≈ 0.275 µM)	2 mg/L (≈ 1.1 µM)	≤ 0.06 mg/L	1 mg/L (≈ 0.55 µM)	1 mg/L (≈ 0.55 µM)	≤ 0.06 mg/L	≤ 0.06 mg/L	2 mg/L (≈ 1.1 µM)	MIC [4]: 1 mg/L (≈ 0.55 µM); MIC [11]: 1 mg/L (≈ 0.55 µM); MIC [12]: 2 mg/L (≈ 1.1 µM); MIC (Entercoccus faecium 2041): ≤ 0.06 mg/L; MIC [13]: 0.5 mg/L (≈ 0.275 µM); MIC [14]: 0.5 mg/L (≈ 0.275 µM); MIC [15]: 1 mg/L (≈ 0.55 µM); MIC [17]: 1 mg/L (≈ 0.55 µM)
CCCCCCCCOc1ccc(-c2ccc(CNC3(C)CC(OC4C(Oc5c6cc7cc5Oc5ccc(cc5Cl)C(OC5CC(C)(N)C(O)C(C)O5)C5NC(=O)C(NC(=O)C7NC(=O)C(CC(N)=O)NC(=O)C(NC(=O)C(CC(C)C)NC)C(O)c7ccc(c(Cl)c7)O6)c6ccc(O)c(c6)-c6c(O)cc(O)cc6C(C(=O)O)NC5=O)OC(CO)C(O)C4O)OC(C)C3O)cc2)cc1 (stereo not drawn) [Compound 23]	5.7 mg/L	2.0 mg/L		8 mg/L (≈ 4.24 µM)	0.5 mg/L (≈ 0.265 µM)		32 mg/L (≈ 17 µM)	32 mg/L (≈ 17 µM)	1 mg/L (≈ 0.53 µM)	38 mg/L (≈ 20.1 µM)	MIC (Entercoccus faecium 2041): 32 mg/L (≈ 17 µM)
CNC(CC(C)C)C(=O)NC1C(=O)NC(CC(N)=O)C(=O)NC2C(=O)NC3C(=O)NC(C(=O)NC(C(=O)O)c4cc(O)cc(O)c4-c4cc3ccc4O)C(OC3CC(C)(N)C(O)C(C)O3)c3ccc(c(Cl)c3)Oc3cc2cc(c3OC2OC(CO)C(O)C(O)C2OC2CC(C)(NCCc3ccc(Cc4ccccc4)cc3)C(O)C(C)O2)Oc2ccc(cc2Cl)C1O (stereo not drawn) [Compound 35]	5.6 mg/L		≤ 0.06 mg/L	≤ 0.06 mg/L		1 mg/L (≈ 0.56 µM)	≤ 0.06 mg/L	≤ 0.06 mg/L		0.5 mg/L (≈ 0.28 µM)	MIC [11]: 1 mg/L (≈ 0.56 µM); MIC [12]: 4 mg/L (≈ 2.24 µM); MIC (Entercoccus faecium 2041): ≤ 0.06 mg/L; MIC [13]: 2 mg/L (≈ 1.12 µM)
CNC(CC(C)C)C(=O)NC1C(=O)NC(CC(N)=O)C(=O)NC2C(=O)NC3C(=O)NC(C(=O)NC(C(=O)O)c4cc(O)cc(O)c4-c4cc3ccc4O)C(OC3CC(C)(N)C(O)C(C)O3)c3ccc(c(Cl)c3)Oc3cc2cc(c3OC2OC(CO)C(O)C(O)C2OC2CC(C)(NCc3ccc(C(F)(F)F)cc3)C(O)C(C)O2)Oc2ccc(cc2Cl)C1O (stereo not drawn) [Compound 37]	2.4 mg/L		≤ 0.06 mg/L		≤ 0.06 mg/L		1 mg/L (≈ 0.571 µM)	≤ 0.06 mg/L	≤ 0.06 mg/L	0.5 mg/L (≈ 0.286 µM)	MIC [4]: ≤ 0.06 mg/L; MIC [12]: 1 mg/L (≈ 0.571 µM)
CCCCCCCCc1ccc(-c2ccc(CNC3(C)CC(OC4C(Oc5c6cc7cc5Oc5ccc(cc5Cl)C(OC5CC(C)(N)C(O)C(C)O5)C5NC(=O)C(NC(=O)C7NC(=O)C(CC(N)=O)NC(=O)C(NC(=O)C(CC(C)C)NC)C(O)c7ccc(c(Cl)c7)O6)c6ccc(O)c(c6)-c6c(O)cc(O)cc6C(C(=O)O)NC5=O)OC(CO)C(O)C4O)OC(C)C3O)cc2)cc1 (stereo not drawn) [Compound 21]		4.3 mg/L		8 mg/L (≈ 4.28 µM)	0.5 mg/L (≈ 0.267 µM)	8 mg/L (≈ 4.28 µM)		8 mg/L (≈ 4.28 µM)	2 mg/L (≈ 1.07 µM)		
CNC(CC(C)C)C(=O)NC1C(=O)NC(CC(N)=O)C(=O)NC2C(=O)NC3C(=O)NC(C(=O)NC(C(=O)O)c4cc(O)cc(O)c4-c4cc3ccc4O)C(OC3CC(C)(N)C(O)C(C)O3)c3ccc(c(Cl)c3)Oc3cc2cc(c3OC2OC(CO)C(O)C(O)C2OC2CC(C)(NCCc3cccc(Oc4ccccc4)c3)C(O)C(C)O2)Oc2ccc(cc2Cl)C1O (stereo not drawn) [Compound 62]	9.5 mg/L	0.22 mg/L	0.5 mg/L (≈ 0.28 µM)	4 mg/L (≈ 2.24 µM)	≤ 0.06 mg/L	4 mg/L (≈ 2.24 µM)	0.5 mg/L (≈ 0.28 µM)	≤ 0.06 mg/L	≤ 0.06 mg/L	2 mg/L (≈ 1.12 µM)	MIC [4]: 1 mg/L (≈ 0.559 µM); MIC [11]: 1 mg/L (≈ 0.559 µM); MIC (Entercoccus faecium 2041): ≤ 0.06 mg/L; MIC [13]: 2 mg/L (≈ 1.12 µM); MIC [14]: 0.5 mg/L (≈ 0.28 µM); MIC [15]: ≤ 0.06 mg/L; MIC [8]: ≤ 0.06 mg/L; MIC [17]: 0.5 mg/L (≈ 0.28 µM)

More lines, main results first:

mean geometric MIC, Vancomycin Resistant Strains [1]	mean geometric MIC, Vancomycin Sensitive Strains [2]	SMILES	MIC [3]	MIC [5]	MIC [6]	MIC (Entercoccus faecium 180)	MIC (Entercoccus faecium 276)	MIC [7]	MIC [9]	MIC [16]	also measured
4.8 mg/L	0.50 mg/L	CNC(CC(C)C)C(=O)NC1C(=O)NC(CC(N)=O)C(=O)NC2C(=O)NC3C(=O)NC(C(=O)NC(C(=O)O)c4cc(O)cc(O)c4-c4cc3ccc4O)C(OC3CC(C)(N)C(O)C(C)O3)c3ccc(c(Cl)c3)Oc3cc2cc(c3OC2OC(CO)C(O)C(O)C2OC2CC(C)(NCc3ccc4c(c3)OCO4)C(O)C(C)O2)Oc2ccc(cc2Cl)C1O (stereo not drawn) [Compound 48]									
1.7 mg/L	0.089 mg/L	CNC(CC(C)C)C(=O)NC1C(=O)NC(CC(N)=O)C(=O)NC2C(=O)NC3C(=O)NC(C(=O)NC(C(=O)O)c4cc(O)cc(O)c4-c4cc3ccc4O)C(OC3CC(C)(N)C(O)C(C)O3)c3ccc(c(Cl)c3)Oc3cc2cc(c3OC2OC(CO)C(O)C(O)C2OC2CC(C)(NCC(C)=Cc3ccc(C(C)(C)C)cc3)C(O)C(C)O2)Oc2ccc(cc2Cl)C1O (stereo not drawn) [Compound 42]									
0.50 mg/L	0.31 mg/L	CCCCCOc1ccc(-c2ccc(CNC3(C)CC(OC4C(Oc5c6cc7cc5Oc5ccc(cc5Cl)C(OC5CC(C)(N)C(O)C(C)O5)C5NC(=O)C(NC(=O)C7NC(=O)C(CC(N)=O)NC(=O)C(NC(=O)C(CC(C)C)NC)C(O)c7ccc(c(Cl)c7)O6)c6ccc(O)c(c6)-c6c(O)cc(O)cc6C(C(=O)O)NC5=O)OC(CO)C(O)C4O)OC(C)C3O)cc2)cc1 (stereo not drawn) [Compound 40]									
13 mg/L	0.50 mg/L	CNC(CC(C)C)C(=O)NC1C(=O)NC(CC(N)=O)C(=O)NC2C(=O)NC3C(=O)NC(C(=O)NC(C(=O)O)c4cc(O)cc(O)c4-c4cc3ccc4O)C(OC3CC(C)(N)C(O)C(C)O3)c3ccc(c(Cl)c3)Oc3cc2cc(c3OC2OC(CO)C(O)C(O)C2OC2CC(C)(NCc3c(O)ccc4ccccc34)C(O)C(C)O2)Oc2ccc(cc2Cl)C1O (stereo not drawn) [Compound 44]									
72 mg/L	0.22 mg/L	CNC(CC(C)C)C(=O)NC1C(=O)NC(CC(N)=O)C(=O)NC2C(=O)NC3C(=O)NC(C(=O)NC(C(=O)O)c4cc(O)cc(O)c4-c4cc3ccc4O)C(OC3CC(C)(N)C(O)C(C)O3)c3ccc(c(Cl)c3)Oc3cc2cc(c3OC2OC(CO)C(O)C(O)C2OC2CC(C)(NCc3ccc(C(O)c4ccccc4)cc3)C(O)C(C)O2)Oc2ccc(cc2Cl)C1O (stereo not drawn) [Compound 109]									
2.0 mg/L	0.50 mg/L	CNC(CC(C)C)C(=O)NC1C(=O)NC(CC(N)=O)C(=O)NC2C(=O)NC3C(=O)NC(C(=O)NC(C(=O)O)c4cc(O)cc(O)c4-c4cc3ccc4O)C(OC3CC(C)(N)C(O)C(C)O3)c3ccc(c(Cl)c3)Oc3cc2cc(c3OC2OC(CO)C(O)C(O)C2OC2CC(C)(NCc3cc(-c4ccccc4)nc4ccc(OC)cc34)C(O)C(C)O2)Oc2ccc(cc2Cl)C1O (stereo not drawn) [Compound 45]									
4.7 mg/L	0.57 mg/L	CNC(CC(C)C)C(=O)NC1C(=O)NC(CC(N)=O)C(=O)NC2C(=O)NC3C(=O)NC(C(=O)NC(C(=O)O)c4cc(O)cc(O)c4-c4cc3ccc4O)C(OC3CC(C)(N)C(O)C(C)O3)c3ccc(c(Cl)c3)Oc3cc2cc(c3OC2OC(CO)C(O)C(O)C2OC2CC(C)(NCC3CC=CCC3)C(O)C(C)O2)Oc2ccc(cc2Cl)C1O (stereo not drawn) [Compound 47]									
